Test results reported in ChEMBL document CHEMBL1201862, “PubChem BioAssay data set” (2004).
Activity calls are given as the source filed them.

Legend:
[1] = molecular target: Sphingosine 1-phosphate receptor 5 (Homo sapiens, UniProt Q9H228); experiment: Late stage counterscreen assay for S1P4 antagonists: Fluorescence dose response cell-based screening assay for antagonists of the Sphingosine 1-Phosphate Receptor 5 (S1P5). [Related pubchem assays (depositor defined):AID1510, AID1524, AID1692, AID1853, AID2332, AID489009, AID489017]; assay type: functional
[2] = molecular target: Sphingosine 1-phosphate receptor 3 (Homo sapiens, UniProt Q99500); experiment: Late stage counterscreen assay for S1P4 antagonists: Fluorescence dose response cell-based screening assay for antagonists of the Sphingosine 1-Phosphate Receptor 3 (S1P3). [Related pubchem assays (depositor defined):AID1510, AID1524, AID1692, AID1853, AID2332, AID489009, AID489017]; assay type: functional
[3] = molecular target: Sphingosine 1-phosphate receptor 1 (Homo sapiens, UniProt P21453); experiment: Late stage counterscreen assay for S1P4 antagonists: Fluorescence dose response cell-based screening assay for antagonists of the Sphingosine 1-Phosphate Receptor 1 (S1P1). [Related pubchem assays (depositor defined):AID1510, AID1524, AID1692, AID1853, AID2332, AID489009, AID489017]; assay type: functional
[4] = molecular target: T1, Sphingosine 1-phosphate receptor 4 (Homo sapiens, UniProt O95977); experiment: potency of S1P4 blockers – cell-based, fluorescence, synthesized analogues, late-stage follow-up (AID 2346); assay type: functional
T1 sequence (O95977 whole entry): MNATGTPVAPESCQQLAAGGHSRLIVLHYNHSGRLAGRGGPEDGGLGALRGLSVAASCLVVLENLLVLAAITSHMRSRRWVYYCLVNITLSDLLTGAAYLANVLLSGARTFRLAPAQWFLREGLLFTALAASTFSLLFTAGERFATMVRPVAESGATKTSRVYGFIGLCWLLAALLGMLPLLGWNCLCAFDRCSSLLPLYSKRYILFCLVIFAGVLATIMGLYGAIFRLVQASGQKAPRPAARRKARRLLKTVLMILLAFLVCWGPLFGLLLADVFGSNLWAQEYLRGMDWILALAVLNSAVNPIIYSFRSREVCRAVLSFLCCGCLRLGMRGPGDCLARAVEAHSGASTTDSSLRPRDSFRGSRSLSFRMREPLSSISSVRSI

[5] = molecular target: Sphingosine 1-phosphate receptor 2 (Homo sapiens, UniProt O95136); experiment: Late stage counterscreen assay for S1P4 antagonists: Fluorescence dose response cell-based screening assay for antagonists of the Sphingosine 1-Phosphate Receptor 2 (S1P2). [Related pubchem assays (depositor defined):AID1510, AID1524, AID1692, AID1853, AID2332, AID489009, AID489017]; assay type: functional
[6] = decrease of insulin promoter-GFP reporter – imaging, high-content screening, mouse beta cells (AID 1628); assay type: functional; conditions: MIN6
[7] = MIN6 cell viability loss – mouse insulinoma, cytotoxicity control, dose response (AID 2122); assay type: functional;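 further: confirmatory high-throughput counterscreen run to flag cytotoxic compounds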
[8] = reduction of Shn3 3'UTR-driven luciferase in osteoblasts – cell-based, Clone20 osteoblasts, firefly luciferase, cherry-picked, dose response (AID 624132); assay type: functional;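 further: firefly luciferase luminescence from reporter carrying the Shn3 3'UTR in osteoblasts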
[9] = loss of viability in HepG2 cells – cell-based, CellTiter-Glo, cherry-picked, cytotoxicity control for Shn3 inhibitor project, dose response (AID 624134); assay type: functional
[10] = non-specific 3'UTR reporter inhibition in Clone20-Shn3RL – cell-based, Renilla luciferase, cherry-picked, counter-screen for Shn3 inhibitor project, dose response (AID 624133); assay type: functional
[11] = molecular target: T2, Mannose-6-phosphate isomerase (Homo sapiens, UniProt P34949); experiment: Confirmation of compounds inhibiting phosphomannose isomerase (PMI) via a fluorescence intensity assay using a high concentration of mannose 6-phosphate. [Related pubchem assays (depositor defined):AID1209, AID1220, AID1545, AID1553, AID1620]
T2 sequence (P34949 whole entry): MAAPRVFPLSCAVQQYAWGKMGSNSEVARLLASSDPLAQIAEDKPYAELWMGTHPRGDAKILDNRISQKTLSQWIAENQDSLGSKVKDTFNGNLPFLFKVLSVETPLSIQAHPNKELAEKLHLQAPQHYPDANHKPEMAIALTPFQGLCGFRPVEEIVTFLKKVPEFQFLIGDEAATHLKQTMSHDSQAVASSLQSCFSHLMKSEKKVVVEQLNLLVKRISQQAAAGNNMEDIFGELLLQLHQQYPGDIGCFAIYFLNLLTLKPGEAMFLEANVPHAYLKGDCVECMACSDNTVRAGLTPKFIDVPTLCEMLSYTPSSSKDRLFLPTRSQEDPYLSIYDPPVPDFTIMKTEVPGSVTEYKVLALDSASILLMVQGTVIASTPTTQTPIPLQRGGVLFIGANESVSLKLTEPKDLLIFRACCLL

[12] = molecular target: T2, Mannose-6-phosphate isomerase; experiment: phosphomannose isomerase inhibition – biochemical, fluorescence intensity, confirmation (AID 1535)
Phosphomannomutase 2 = Phosphomannomutase 2 (Homo sapiens, UniProt O15305); experiment: Counter screen SAR assay for PMM2 inhibitors via a fluorescence intensity assay. [Related pubchem assays (depositor defined):AID1545, AID1574]
[13] = molecular target: Phosphoethanolamine/phosphocholine phosphatase (Homo sapiens, UniProt Q8TCT1); experiment: SAR assay for compounds that inhibit PHOSPHO1. [Related pubchem assays (depositor defined):AID1545, AID1565, AID1574]
SUMO E1/E2 = SUMO E1/E2 (Homo sapiens, UniProt P63279+Q9UBE0+Q9UBT2); experiment: SAR analysis of SUMOylation using HTRF in an in-Vitro dose response assay. [Related pubchem assays (depositor defined):AID2006, AID2011, AID2018, AID2069, AID2658]; assay type: functional
Cytochrome P450 1A2 = molecular target: T3, Cytochrome P450 1A2 (Homo sapiens, UniProt P05177);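 further: PubChem cytochrome P450 panel assay, CYP1A2 panel member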
T3 sequence (P05177 whole entry): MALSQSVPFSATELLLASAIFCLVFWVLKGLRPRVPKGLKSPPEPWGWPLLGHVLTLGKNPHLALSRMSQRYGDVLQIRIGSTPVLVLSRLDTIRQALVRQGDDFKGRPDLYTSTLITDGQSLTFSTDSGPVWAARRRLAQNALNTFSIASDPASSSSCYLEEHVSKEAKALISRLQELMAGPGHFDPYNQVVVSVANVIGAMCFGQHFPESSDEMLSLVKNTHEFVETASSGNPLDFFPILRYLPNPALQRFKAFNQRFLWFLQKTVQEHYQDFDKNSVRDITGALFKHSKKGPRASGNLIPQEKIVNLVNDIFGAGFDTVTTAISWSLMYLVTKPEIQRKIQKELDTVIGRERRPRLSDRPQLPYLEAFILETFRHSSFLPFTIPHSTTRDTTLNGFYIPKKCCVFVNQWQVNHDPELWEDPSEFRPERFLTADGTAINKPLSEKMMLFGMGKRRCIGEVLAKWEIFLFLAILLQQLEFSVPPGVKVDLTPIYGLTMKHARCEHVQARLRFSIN

Trypsin = Trypsin (Sus scrofa, UniProt P00761); experiment: trypsin protease activity blockade – biochemical, quenched peptide fluorescence, cherry-pick, selectivity assay for Rce1 protease inhibitor project, dose response (AID 488789)
CAAX prenyl protease 2 = molecular target: T4, CAAX prenyl protease 2 (Saccharomyces cerevisiae S288c, UniProt Q03530); assay type: biochemical
T4 sequence (Q03530 whole entry): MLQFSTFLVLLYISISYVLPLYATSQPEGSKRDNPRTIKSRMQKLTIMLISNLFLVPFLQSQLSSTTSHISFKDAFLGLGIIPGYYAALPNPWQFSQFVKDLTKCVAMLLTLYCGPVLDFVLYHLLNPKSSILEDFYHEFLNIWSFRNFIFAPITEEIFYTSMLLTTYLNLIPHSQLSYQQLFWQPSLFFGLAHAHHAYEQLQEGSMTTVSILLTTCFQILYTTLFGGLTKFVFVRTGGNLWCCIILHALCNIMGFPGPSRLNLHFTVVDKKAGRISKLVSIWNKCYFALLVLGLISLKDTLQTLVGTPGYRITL

CAAX prenyl protease 1 = CAAX prenyl protease 1 (Saccharomyces cerevisiae S288c, UniProt P47154); experiment: yeast CAAX protease Ste24 inhibition – biochemical, S. cerevisiae, plate reader, cherry-pick, dose response (AID 488815)
[14] = molecular target: DNA dC->dU-editing enzyme APOBEC-3G (Homo sapiens, UniProt Q9HC16); experiment: Dose Response confirmation of small molecule APOBEC3G DNA Deaminase Inhibitors via a fluorescence-based single-stranded DNA deaminase assay. [Related pubchem assays (depositor defined):AID493012, AID493028]; assay type: functional
[15] = molecular target: Lysine-specific demethylase 4A (Homo sapiens, UniProt O75164); experiment: inhibition of JMJD2A H3K9me3 demethylation – biochemical, DELFIA europium, cherry-picked samples, selectivity assay for GASC-1 inhibitor project, dose response (AID 488840)
[16] = molecular target: Lysine-specific demethylase 4C (Homo sapiens, UniProt Q9H3R0); experiment: inhibition of JMJD2C H3K9me3 demethylation – biochemical, DELFIA europium, cherry-picked samples, dose response (AID 488835); assay type: functional
[17] = molecular target: Tyrosyl-DNA phosphodiesterase 2 (Homo sapiens, UniProt O95551); experiment: potency against TDP2 phosphodiesterase activity – biochemical, epi absorbance, IC50, dose response (AID 743297)
Sequence of Tyrosyl-DNA phosphodiesterase 2 (O95551 whole entry): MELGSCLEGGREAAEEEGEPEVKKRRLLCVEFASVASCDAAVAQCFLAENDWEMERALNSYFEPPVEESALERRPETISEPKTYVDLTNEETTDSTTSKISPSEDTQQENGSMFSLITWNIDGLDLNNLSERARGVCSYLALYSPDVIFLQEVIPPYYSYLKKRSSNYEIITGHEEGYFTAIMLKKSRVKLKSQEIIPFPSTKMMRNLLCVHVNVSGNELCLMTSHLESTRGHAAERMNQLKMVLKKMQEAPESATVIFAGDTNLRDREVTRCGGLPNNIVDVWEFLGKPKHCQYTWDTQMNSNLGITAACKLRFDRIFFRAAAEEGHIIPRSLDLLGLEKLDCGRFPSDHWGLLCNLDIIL

Sequence of Sphingosine 1-phosphate receptor 1 (P21453 whole entry): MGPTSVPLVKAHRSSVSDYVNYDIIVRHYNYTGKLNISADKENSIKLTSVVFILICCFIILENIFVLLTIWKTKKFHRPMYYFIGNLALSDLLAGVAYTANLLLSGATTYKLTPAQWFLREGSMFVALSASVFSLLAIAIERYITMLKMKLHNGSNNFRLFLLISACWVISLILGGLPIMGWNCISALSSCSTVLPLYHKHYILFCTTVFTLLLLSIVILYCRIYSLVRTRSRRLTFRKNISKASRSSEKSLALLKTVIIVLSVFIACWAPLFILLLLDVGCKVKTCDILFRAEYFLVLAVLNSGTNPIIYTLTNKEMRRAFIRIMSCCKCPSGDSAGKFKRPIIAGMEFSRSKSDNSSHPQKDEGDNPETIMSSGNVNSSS
Sequence of Sphingosine 1-phosphate receptor 5 (Q9H228 whole entry): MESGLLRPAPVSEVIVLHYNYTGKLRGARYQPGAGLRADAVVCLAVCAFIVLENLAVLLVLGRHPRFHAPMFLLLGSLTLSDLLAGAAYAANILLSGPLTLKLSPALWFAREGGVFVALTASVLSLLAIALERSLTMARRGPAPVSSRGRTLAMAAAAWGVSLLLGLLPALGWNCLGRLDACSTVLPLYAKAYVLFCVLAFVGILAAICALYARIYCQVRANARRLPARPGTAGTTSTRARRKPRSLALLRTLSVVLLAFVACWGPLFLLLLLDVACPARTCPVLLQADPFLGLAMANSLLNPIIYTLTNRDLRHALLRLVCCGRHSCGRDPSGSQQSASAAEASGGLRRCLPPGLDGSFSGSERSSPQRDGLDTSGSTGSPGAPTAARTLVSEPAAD
Sequence of SUMO E1/E2 (Q9UBE0 whole entry): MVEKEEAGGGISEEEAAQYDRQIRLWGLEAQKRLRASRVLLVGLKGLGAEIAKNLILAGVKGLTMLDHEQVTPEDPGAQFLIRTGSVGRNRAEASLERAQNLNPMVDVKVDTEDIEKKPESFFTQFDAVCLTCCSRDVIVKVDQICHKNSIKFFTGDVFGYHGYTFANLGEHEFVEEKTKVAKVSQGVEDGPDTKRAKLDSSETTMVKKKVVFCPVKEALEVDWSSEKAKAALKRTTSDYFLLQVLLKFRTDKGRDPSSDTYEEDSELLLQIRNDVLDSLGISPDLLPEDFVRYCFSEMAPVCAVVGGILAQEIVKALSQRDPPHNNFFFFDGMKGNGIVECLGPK
Sequence of SUMO E1/E2 (Q9UBT2 whole entry): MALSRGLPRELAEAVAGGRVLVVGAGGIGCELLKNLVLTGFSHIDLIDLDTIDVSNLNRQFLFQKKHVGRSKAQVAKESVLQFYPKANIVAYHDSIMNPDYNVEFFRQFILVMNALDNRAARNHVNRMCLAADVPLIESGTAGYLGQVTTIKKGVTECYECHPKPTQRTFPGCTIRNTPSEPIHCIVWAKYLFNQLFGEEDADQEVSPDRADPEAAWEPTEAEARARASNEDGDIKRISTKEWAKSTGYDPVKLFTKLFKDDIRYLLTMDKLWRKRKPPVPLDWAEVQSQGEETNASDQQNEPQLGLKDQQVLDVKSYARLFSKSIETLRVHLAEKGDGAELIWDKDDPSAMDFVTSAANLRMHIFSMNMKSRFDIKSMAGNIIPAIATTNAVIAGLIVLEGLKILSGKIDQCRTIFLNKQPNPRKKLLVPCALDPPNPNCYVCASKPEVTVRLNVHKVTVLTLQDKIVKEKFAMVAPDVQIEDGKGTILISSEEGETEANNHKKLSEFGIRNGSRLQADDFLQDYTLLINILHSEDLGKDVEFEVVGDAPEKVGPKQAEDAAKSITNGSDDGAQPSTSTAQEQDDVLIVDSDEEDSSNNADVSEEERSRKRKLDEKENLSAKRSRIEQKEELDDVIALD
Sequence of SUMO E1/E2 (P63279 whole entry): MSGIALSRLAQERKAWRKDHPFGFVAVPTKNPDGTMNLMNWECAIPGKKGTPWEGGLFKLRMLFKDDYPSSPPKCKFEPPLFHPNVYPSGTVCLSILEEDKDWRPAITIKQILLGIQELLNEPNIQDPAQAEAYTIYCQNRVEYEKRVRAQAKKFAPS
Sequence of DNA dC->dU-editing enzyme APOBEC-3G (Q9HC16 whole entry): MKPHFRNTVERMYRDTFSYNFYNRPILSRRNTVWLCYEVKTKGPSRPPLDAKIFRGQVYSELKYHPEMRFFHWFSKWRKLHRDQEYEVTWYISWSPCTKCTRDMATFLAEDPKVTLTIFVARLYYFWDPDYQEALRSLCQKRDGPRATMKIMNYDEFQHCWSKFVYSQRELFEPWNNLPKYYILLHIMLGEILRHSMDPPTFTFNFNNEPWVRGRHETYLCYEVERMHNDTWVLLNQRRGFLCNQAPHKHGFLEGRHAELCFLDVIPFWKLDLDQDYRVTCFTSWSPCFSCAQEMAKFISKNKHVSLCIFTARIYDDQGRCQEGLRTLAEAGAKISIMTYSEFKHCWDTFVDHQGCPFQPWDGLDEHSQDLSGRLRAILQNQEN
Sequence of Phosphoethanolamine/phosphocholine phosphatase (Q8TCT1 whole entry): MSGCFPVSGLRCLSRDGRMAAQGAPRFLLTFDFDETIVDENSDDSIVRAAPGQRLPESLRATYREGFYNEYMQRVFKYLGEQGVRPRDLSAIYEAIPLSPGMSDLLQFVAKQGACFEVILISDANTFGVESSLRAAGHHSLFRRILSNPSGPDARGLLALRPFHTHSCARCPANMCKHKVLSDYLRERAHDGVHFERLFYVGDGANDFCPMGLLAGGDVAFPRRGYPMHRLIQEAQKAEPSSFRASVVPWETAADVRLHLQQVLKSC
Sequence of Phosphomannomutase 2 (O15305 whole entry): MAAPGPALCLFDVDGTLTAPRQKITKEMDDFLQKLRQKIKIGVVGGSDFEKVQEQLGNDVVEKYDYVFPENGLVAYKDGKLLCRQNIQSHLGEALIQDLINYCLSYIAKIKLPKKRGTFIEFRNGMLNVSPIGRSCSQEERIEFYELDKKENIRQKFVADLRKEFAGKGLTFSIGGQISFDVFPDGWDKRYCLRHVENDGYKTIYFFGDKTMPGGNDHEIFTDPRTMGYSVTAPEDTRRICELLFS
Sequence of Lysine-specific demethylase 4C (Q9H3R0 whole entry): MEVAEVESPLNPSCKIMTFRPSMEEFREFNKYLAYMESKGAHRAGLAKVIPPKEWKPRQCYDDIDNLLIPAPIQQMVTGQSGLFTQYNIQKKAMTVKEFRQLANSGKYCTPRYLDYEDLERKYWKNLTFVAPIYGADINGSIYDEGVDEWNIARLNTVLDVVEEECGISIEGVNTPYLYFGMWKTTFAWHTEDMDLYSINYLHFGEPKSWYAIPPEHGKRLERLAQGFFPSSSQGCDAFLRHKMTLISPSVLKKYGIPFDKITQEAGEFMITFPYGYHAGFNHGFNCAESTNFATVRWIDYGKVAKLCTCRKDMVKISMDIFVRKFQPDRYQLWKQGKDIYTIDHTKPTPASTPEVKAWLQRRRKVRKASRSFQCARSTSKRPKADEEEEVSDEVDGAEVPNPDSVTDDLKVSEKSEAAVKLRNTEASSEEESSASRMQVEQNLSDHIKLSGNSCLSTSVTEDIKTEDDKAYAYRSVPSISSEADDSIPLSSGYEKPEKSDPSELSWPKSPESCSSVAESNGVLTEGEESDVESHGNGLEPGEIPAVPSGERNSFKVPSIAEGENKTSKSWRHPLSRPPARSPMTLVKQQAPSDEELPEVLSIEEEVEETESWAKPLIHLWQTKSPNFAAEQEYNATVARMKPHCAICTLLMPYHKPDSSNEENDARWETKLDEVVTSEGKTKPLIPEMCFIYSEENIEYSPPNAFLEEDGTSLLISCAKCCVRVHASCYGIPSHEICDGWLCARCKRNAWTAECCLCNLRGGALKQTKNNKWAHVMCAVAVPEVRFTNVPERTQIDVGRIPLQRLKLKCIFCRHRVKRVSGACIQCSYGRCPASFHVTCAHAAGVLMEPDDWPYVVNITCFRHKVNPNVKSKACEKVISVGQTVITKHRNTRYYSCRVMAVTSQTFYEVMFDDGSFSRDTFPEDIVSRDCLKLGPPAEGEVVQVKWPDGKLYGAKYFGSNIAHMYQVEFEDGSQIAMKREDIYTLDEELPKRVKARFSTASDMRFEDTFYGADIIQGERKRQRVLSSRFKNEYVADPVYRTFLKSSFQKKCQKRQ
Sequence of Sphingosine 1-phosphate receptor 2 (O95136 whole entry): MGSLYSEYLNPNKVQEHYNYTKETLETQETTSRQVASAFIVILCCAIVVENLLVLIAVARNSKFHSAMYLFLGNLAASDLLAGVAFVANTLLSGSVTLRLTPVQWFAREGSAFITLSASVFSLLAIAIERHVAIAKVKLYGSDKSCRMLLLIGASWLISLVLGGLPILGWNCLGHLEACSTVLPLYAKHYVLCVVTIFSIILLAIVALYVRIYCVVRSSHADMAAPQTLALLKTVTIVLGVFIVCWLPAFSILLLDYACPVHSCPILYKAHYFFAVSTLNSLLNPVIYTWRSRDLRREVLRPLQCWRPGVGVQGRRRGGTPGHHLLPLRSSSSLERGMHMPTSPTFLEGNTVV
Sequence of Trypsin (P00761 whole entry): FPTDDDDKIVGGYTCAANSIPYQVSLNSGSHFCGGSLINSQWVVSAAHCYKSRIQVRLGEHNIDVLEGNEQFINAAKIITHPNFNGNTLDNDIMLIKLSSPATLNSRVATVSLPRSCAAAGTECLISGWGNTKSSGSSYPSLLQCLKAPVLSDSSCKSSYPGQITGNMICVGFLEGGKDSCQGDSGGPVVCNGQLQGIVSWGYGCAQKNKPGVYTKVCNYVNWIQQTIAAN

CCOc1ccc(OC)cc1-c1ccc(C(=O)Nc2c(C)cccc2CC)o1
IC50 [1]: 19.2 µM (inactive) | IC50 [2]: > 25 µM (inactive) | IC50 [3]: > 25 µM (inactive) | IC50 [4]: 0.414 µM (active) | IC50 [5]: > 25 µM (inactive)

COc1ccccc1NC(=O)Cc1nn(C)c(=O)c2ccccc12
IC50 [6]: 3.14 µM (active) | IC50 [7]: 2.11 µM (active) | AC50 [8]: 1.97 µM (active) | AC50 [9]: 58.6 µM (active) | AC50 [10]: 2.05 µM (active)

Cc1ccc(C)c(N2Cc3ccccc3C2=O)c1
IC50 [11]: > 100 µM (inactive) | IC50 [12]: > 100 µM (inactive) | IC50 (Phosphomannomutase 2): > 100 µM (inactive) | IC50 [13]: > 100 µM (inactive)

Sc1nnc(-c2cc(-c3ccccc3)[nH]n2)n1N=Cc1c(Cl)cccc1Cl
IC50 (SUMO E1/E2): 82 µM (active)

N#CC[N+]1(Cc2ccccn2)CCCC1.O=S(=O)([O-])c1ccccc1
AC50 (Cytochrome P450 1A2): inactive

COc1cccc2c(O)c(C(=O)O)cnc12
AC50 (Trypsin): 64.1 µM (active) | AC50 (CAAX prenyl protease 2): 36 µM (active) | AC50 (CAAX prenyl protease 1): 6.84 µM (active)

O=C1NC(=O)C(Sc2ccccc2[N+](=O)[O-])C(=O)N1
IC50 [14]: 52.7 µM (active) | AC50 [15]: 2.28 µM (active) | AC50 [16]: 1.23 µM (active) | IC50 [17]: 36.3 µM (inactive)
